Residues, ends and D or L forms follow the SMILES beside them.
How the values were obtained:
[1] = tested on: RPtag (large); test: Association/dissociation kinetics of RPtag (small) peptides with RPtag (large) by fluorescence anisotropy; type: binding, Thermoanaerobacter tengcongensis; conditions: for koff: LS dissociation, unlabeled competitor peptide; for kon (M^−1 min^−1 ) (×10^7): S*-LS transition, calculated from measured koff and Kd
Protocol: Panel a depicts representative association rate kinetics traces varying native RPtag small. Rhodamine labeled RPtag small at the indicated concentration was incubated with unlabeled RPtag large and the association measured by fluorescence anisotropy. L-S complex concentration was calculated by the equation (r−rmin)/(rmax−rmin)*[S] where r is the measured anisotropy, rmin is the anisotropy in the absence of any RPtag large, rmax is the anisotropy measured in the presence of at saturating RPtag large, and [S] is the total concentration of RPtag small used in the experiment. […] Dashed cyan lines are simulations of the mechanism shown in f using the rate constants detailed herein. The concentrations in the simulations were multiplied by a correction factor of 0.925, which is well within the 90% purity specification of the purchased peptide.
LS complex was performed by incubating 1000 nM RPtag large with the indicated concentrations of rhodamine labeled RPtag small. At the start of the experiment, 0.1 mM unlabeled native RPtag small was added and fluorescence anisotropy monitored. Data processing was done as in panel a, except the red fits were to the single exponential decay equation y=y0+A*exp(−b*t). As expected, the initial dissociation rates were linear with respect to the LS complex.
Fitting to a line yields a rate constant (koff)=0.0091 min^−1 (FIG. 9 panel e). In good agreement, when the kinetics are fit with a first order rate law, a rate constant of 0.012±0.002 min^−1 (n=15) was observed. […] Panel e is a graph of the initial rates of the traces represented in d. Slope of the fit line is 0.0091 min^−1. Data are mean±SE (n=3).
The library of mutant RPtag(small) peptides, described above, was next analyzed to measure off rates (koff). The on rate was also calculated from measured koff and Kd (S*-LS transition), except instead of using unlabeled native peptide as the competitor, we used unlabeled Nd2,P5A,E18A (the tightest binding RPtag(small) peptide identified). […] However, there were notable exceptions. […] This indicates, without wishing to be limited, that P5 may constrain the structure of the peptide. The increased flexibility imparted to the peptide by the P5A mutation may decrease the energy barrier required for binding/unbinding.
Target sequence in this assay (as listed by the source): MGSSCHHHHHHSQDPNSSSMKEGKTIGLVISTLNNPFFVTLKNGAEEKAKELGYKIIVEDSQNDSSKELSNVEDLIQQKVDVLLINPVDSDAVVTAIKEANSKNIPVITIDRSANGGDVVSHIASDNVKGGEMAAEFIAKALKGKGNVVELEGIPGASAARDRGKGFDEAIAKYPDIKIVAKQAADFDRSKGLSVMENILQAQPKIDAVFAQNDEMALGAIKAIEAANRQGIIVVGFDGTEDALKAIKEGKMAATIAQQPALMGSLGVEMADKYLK

[2] = target: RPtag (large); test: Fluorescence anisotropy Kd of rhodamine labeled RPtag (small) peptides for RPtag (large); type: binding, Thermoanaerobacter tengcongensis; conditions: N-terminal rhodamine tagged peptide, unlabeled RPtag (large), 50 mM Tris pH 8.0, 0.005% Tween 20; mean ± SE
Protocol: 50 nM of RP-Tag Small (see Sequence 3, below) with an N-terminal Rhodamine B label was incubated with increasing concentrations of either RP-Tag Large (see Sequence 2) or Bovine Serum Albumin (BSA) in 50 mM Tris pH 8.0, 150 mM NaCl, 10 mM 2-mercaptoethanol, and 0.005% Tween 20 for 5 min in black 96-well plates at room temperature.
Anisotropy was then measured, and a Kd calculated by fitting the data to the equation f=y0+(ymax−y0)*(Ptot+x+Kd−sqrt((Ptot+x+Kd)^2−4*Ptot*x))/(2*Ptot), where y0 is the baseline anisotropy, ymax is the maximum anisotropy, Ptot is the fixed concentration of labeled peptide used, x is the variable concentration of protein used, and Kd is the measured Kd.
The indicated concentrations of RPtag (large) and an anti-His tag antibody (4E3D10H2/E3 purchased from ThermoFisher Scientific) were incubated with 1 nM rhodamine labeled native RPtag (small) peptide and 6×His peptide (Rhodamine-GHHHHHH), respectively, and fluorescence anisotropy measured. BSA incubated with native rhodamine labeled RPtag(small) is included as a control for non-specific binding. Kd's were calculated according to the equation f=y0+(ymax−y0)*(Ptot+x+Kd−sqrt((Ptot+x+Kd)^2−4*Ptot*x))/(2*Ptot), where y0 is the baseline anisotropy, ymax is the maximum anisotropy, Ptot is the fixed concentration of labeled peptide used, x is the variable concentration of protein used, and Kd is the measured Kd. We measured a Kd of 0.2±0.1 nM for RPtag(large) binding RPtag(small), and a Kd of 6±1 nM for the antibody/6×His tag pair.
Regarding the studies shown in FIG. 14, increasing concentrations of unlabeled RPtag large with the indicated mutations (native, f137d, and f137e) were incubated for 1 h with 1 nM rhodamine labeled RPtag small peptide and the fluorescence anisotropy was measured. Resultant curves were fit with the equation f=y0+(ymax−y0)*(Ptot+x+Kd−sqrt((Ptot+x+Kd)^2−4*Ptot*x))/(2*Ptot), where y0 is the baseline anisotropy, ymax is the maximum anisotropy, Ptot is the fixed concentration of labeled peptide used, x is the variable concentration of protein used, and Kd is the measured Kd. Data are presented here as Ka=1/Kd. Log transformed Ka's were then compared by one-way ANOVA with Holm-Sidak post hoc correction. ***p<0.001, **p<0.01, *p<0.05. data are mean±SEM (n=3-4). Buffer was 50 mM Tris pH 8.0, 0.005% tween20. Proteins were expressed and purified by single step NiNTA chromatography as before. Peptides were synthesized solid-state and handled as previous.

Compound | koff [1] [min⁻¹] | kon (M^−1 min^−1 ) (×10^7) [1] | Kd [2] [µM]
KIPNFIPAELKLITKA [Nd2, Cd3, e18a] | 0.053 ± 0.002 | 40 ± 2 ×10^7 M^−1 min^−1 | 
GEKIPNFIPAELKLITAENVQ [k17a] | 0.0057 ± 0.0002 | 1.0 ± 0.1 ×10^7 M^−1 min^−1 | 
ELKLITKE [Nd10, Cd3] | >2 |  | 
GEKIP [Cd16] |  |  | > 100
ITKENVQ [Nd14] |  |  | > 100
TKENVQ [Nd15] |  |  | > 100
GEKIPNFIAAELKLITKENVQ [p9a] | 0.0024 ± 0.0004 | 1.4 ± 0.2 ×10^7 M^−1 min^−1 | 
CC(C)[C@H](NC(=O)[C@H](CC(N)=O)NC(=O)[C@@H](N)CCC(=O)O)C(=O)N[C@@H](CCC(N)=O)C(=O)O [Nd17, ENVQ] (H-ENVQ-OH; N-terminus and C-terminus assumed) |  |  | > 100
GEKIPNFI [Cd13] |  |  | > 100
EKIPNFIPAELKLITKENVQ [Nd1] | 0.0088 ± 0.0001 | 3.4 ± 0.1 ×10^7 M^−1 min^−1 | 
GEKAPNFIPAELKLITKENVQ [i4a] | 0.0060 ± 0.0002 |  | 
KIPNFIPAELKLITKANVQ [Nd2, e18a] | 0.0083 ± 0.0010 | 6.5 ± 0.7 ×10^7 M^−1 min^−1 | 
ELKLITKA [Nd10, Cd3, e18a] | >2 |  | 
IANFIPAELKLITKANVQ [Nd3, p5a, e18a] | 0.058 ± 0.002 | 9.2 ± 0.4 ×10^7 M^−1 min^−1 | 
KIANFIPAELKLITKANAA [Nd2, p5a, e18a, v20a, q21a] | 0.013 ± 0.001 | 20 ± 1 ×10^7 M^−1 min^−1 | 
PAELKLITKA [Nd8, Cd3, e18a] | >2 |  | 

Compound | koff [1] [min⁻¹] | kon (M^−1 min^−1 ) (×10^7) [1] | Kd [2] [µM]
KIPNFIPAELKLITKE [Nd2, Cd3] | 0.046 ± 0.002 | 8.2 ± 0.3 ×10^7 M^−1 min^−1 | 
KIANFIPAELKLITKA [Nd2, Cd3, p5a, e18a] | 0.18 ± 0.01 | 33 ± 2 ×10^7 M^−1 min^−1 | 
IPAELKLITKENVQ [Nd7] | 0.042 ± 0.010 | 1.8 ± 0.4 ×10^7 M^−1 min^−1 | 
GEKIPNFIPAALKLITKENVQ [e11a] | 0.0067 ± 0.0005 | 0.46 ± 0.06 ×10^7 M^−1 min^−1 | 
GEKIANFIPAELKLITKENVQ [p5a] | 0.024 ± 0.002 |  | 
NFIPAELKLITKENVQ [Nd5] | 0.056 ± 0.001 | 9.6 ± 0.1 ×10^7 M^−1 min^−1 | 
GEKIPNFIPAEAKLITKENVQ [l12a] | 0.20 ± 0.06 | 4.3 ± 1.2 ×10^7 M^−1 min^−1 | 
LITKENVQ [Nd13] | >2 |  | 
GEKIPAFIPAELKLITKENVQ [n6a] | 0.0015 ± 0.0003 | 0.45 ± 0.09 ×10^7 M^−1 min^−1 | 
KLITKENVQ [Nd12] | >2 |  | 
GEKIPN [Cd15] |  |  | > 100
GEKIPNFIPAELKLITK [Cd4] | 0.22 ± 0.02 | 22 ± 2 ×10^7 M^−1 min^−1 | 
KENVQ [Nd16] |  |  | > 100
GEKIPNFIPAELKLI [Cd6] | >2 |  | 
GEKIPNFIPAELKLITKE [Cd3] | 0.12 ± 0.02 |  | 
KIPNFIPAELKLITKENVQ [Nd2] | 0.0035 ± 0.0008 | 5.3 ± 1.3 ×10^7 M^−1 min^−1 | 

— patent publication US11414454B2, “Compositions, methods, and systems for affinity-based protein identification and purification” (Auctus Biologies, Inc., priority 2017, dated 2022)
